US20150125498A1, “NEW PARTICLE STABILIZED EMULSIONS AND FOAMS” (SPEXIMO AB, priority 2010, published 2015)

Tests used:
[1] = In vitro skin penetration of methyl salicylate in flow diffusion cell (Experiment 9); format: in vitro ADME, pig
Description: The emulsions contained 56% oil and 214 mg starch/ml oil (corresponding to sample M in experiment 8). The total volume was 7 ml and each experiment was performed in triplicate. Methyl salicylate, dissolved in the oil phase, was used as control substance for studying the permeability into the skin.
The skin diffusion measurement was performed in a flow cell by monitoring the transport of methyl salicylate from the three different topical formulations across pigskin membrane and silicone membrane under a flow of phosphate buffer with pH 6.8. The diffusion experiments were performed in seven-chamber diffusion cells at 32° C. and the donor and receptor phase were separated by a membrane with a diffusion area of 0.64 cm^2 (9 mm Ø). About 1 g of the emulsions (donor phase) were spread uniformly on the membranes. The cells were covered with parafilm to avoid evaporation. Buffer flowed through the pump (IsmatecIPN-16, L852) with a flow of 2 ml/h. Samples were collected every two hours during 12 hours and were analyzed using a spectrophotometer (Varian Carry 50Bio) at the detection wavelength for methyl salicylate (302 nm).

adult humans = details: cited from earlier work

In the case of `COC(=O)c1ccccc1O` [methyl salicylate, Methyl salicylate], the “Steady state flux of methyl salicylate” value ([1]; pig skin, 32° C., 56% oil starch Pickering emulsions) is listed as “around 8 μg/(cm2*h)”, the “Flux compared with buffer solutions of the same methyl salicylate concentration” value ([1]; similar experimental set up observed previously) is listed as “nearly two times higher” and the LD50 (adult humans) is listed as 500 mg/kg.
